From patent US20250367193A1, “BIFUNCTIONAL COMPOUNDS CONTAINING SUBSTITUTED PYRIMIDINE DERIVATIVES FOR DEGRADING CYCLIN-DEPENDENT KINASE 2 VIA UBIQUITIN PROTEASOME PATHWAY” (NIKANG THERAPEUTICS, INC., priority 2022, published 2025)

Target: T1, CDK2 (Homo sapiens, UniProt P24941)
T1 construct: High-Throughput Measurement of Cellular Endogenous CDK2; endogenous in cells; host or cells: OVCAR3
Experiment: Inhibition of CDK2: phospho-Rb (S807/811) HTRF measurement in cells
Format: cell-based
Settings: OVCAR3 cells (CDK2 dependent cell line), 24 h compound treatment, read-out: pRb
Description: Phosphorylation of RB protein at S807/811 are measured using HTRF phospho-RB cellular kits (Cat #64RBS807PEG) from Cisbio.
On Day 1, OVCAR3 (CDK2 dependent cell line) cells are seeded into 96-well tissue-culture treated plates at 20,000 cells/well in 200 μL and incubated overnight at 37° C. in CO2 atmosphere. On Day 2, the cells are treated with test compounds at concentrations from 0.3 to 10,000 nM using HP D300 digital dispenser. Twenty-four hours after compound treatment, cell culture media is removed by flicking the plate and tapping the plate against clean paper towel. Immediately 30 μL 1× lysis buffer is supplemented from the kit and the plate is incubated at room temperature on shaker for 30 min. After homogenization by pipetting up and down, 8 μL cell lysate from 96-well cell culture plate is transferred to 384-well small volume white detection plate. 2 μL premixed detection solution is added and the plate was covered with sealer. To prepare the detection solution, d2 conjugated-phospho-RB antibody and Eu-cryptate conjugated phosphor-RB antibody are diluted into detection buffer following manufacturer's instruction. Detection plates are incubated for 4 h at room temperature and read on ClarioStar (BMG Labtech) in TR-FRET mode ([…]). The TR-FRET ratio (665 nM/620 nM) is plotted against the compound concentration and normalized to DMSO controls. Half maximal inhibition concentration (IC50) values are calculated with a four-parameter logistic fit using GraphPad Prism (version 8; La Jolla, CA).

Row | SMILES | IC50
1 | Cn1nc(N2CCC(=O)NC2=O)c2ccc(C3CCN(Cc4cccc(S(=O)(=O)N5CCC(Nc6ncc(C(F)(F)F)c(O[C@@H]7CCC[C@@H]7O)n6)CC5)c4)CC3)cc21 (racemic) [Cpd 3, Rac-1-(6-(1-(3-((4-((4-(((1R,2S)-2-hydroxy-cyclopentyl)oxy)-5-(trifluoro-methyl)-pyrimidin-2-yl)amino)piperidin-1-yl)-sulfonyl)benzyl)piperidin-4-yl)-1-methyl-1H-indazol-3-yl)dihydropyrimidine-2,4(1H,3H)-dione] | 28 to 100 nM
2 | Cn1nc(N2CCC(=O)NC2=O)c2ccc(C3CCN(CC4CCN(S(=O)(=O)c5ccc(Nc6ncc(C(F)(F)F)c(O[C@H]7CCC[C@H]7O)n6)cc5)CC4)CC3)cc21 (racemic) [compound 6, Rac-1-(6-(1-((1-((4-((4-(((1S,2R)-2-hydroxy-cyclopentyl)oxy)-5-(trifluoromethyl)-pyrimidin-2-yl)amino)phenyl)-sulfonyl)-piperidin-4-yl)methyl)piperidin-4-yl)-1-methyl-1H-indazol-3-yl)dihydropyrimidine-2,4(1H,3H)-dione] | 100 to 500 nM
3 | Cn1nc(N2CCC(=O)NC2=O)c2ccc(C3CCN(Cc4cccc(S(=O)(=O)N5CCC(Nc6ncc(C(F)(F)F)c(N7CCCCC7)n6)CC5)c4)CC3)cc21 [Cpd 1, 1-(1-methyl-6-(1-(3-((4-((4-(piperidin-1-yl)-5-(trifluoromethyl)pyrimidin-2-yl)amino)-piperidin-1-yl)sulfonyl)benzyl)-piperidin-4-yl)-1H-indazol-3-yl)dihydropyrimidine-2,4(1H,3H)-dione] | 100 to 500 nM
4 | Cn1nc(N2CCC(=O)NC2=O)c2ccc(C3CCN(Cc4cccc(S(=O)(=O)N5CCC(Nc6ncc(C(F)(F)F)c(OC7CCCC7)n6)CC5)c4)CC3)cc21 [Cpd 2, 1-(6-(1-(3-((4-((4-(cyclopentyloxy)-5-(trifluoromethyl)pyrimidin-2-yl)amino)-piperidin-1-yl)sulfonyl)benzyl)-piperidin-4-yl)-1-methyl-1H-indazol-3-yl)dihydro-pyrimidine-2,4(1H,3H)-dione] | 28 to 100 nM
5 | Cn1nc(N2CCC(=O)NC2=O)c2ccc(C3CCN(Cc4cccc(S(=O)(=O)N5CCC(Nc6ncc(C(F)(F)F)c(N7CCCC7)n6)CC5)c4)CC3)cc21 [Cpd 4, 1-(1-methyl-6-(1-(3-((4-((4-(pyrrolidin-1-yl)-5-(trifluoromethyl)pyrimidin-2-yl)amino)-piperidin-1-yl)sulfonyl)benzyl)piperidin-4-yl)-1H-indazol-3-yl)dihydropyrimidine-2,4(1H,3H)-dione] | 100 to 500 nM
6 | Cn1nc(N2CCC(=O)NC2=O)c2ccc(C3CCN(Cc4cccc(S(=O)(=O)N5CCC(Nc6ncc(C(F)(F)F)c(OC7CCC7)n6)CC5)c4)CC3)cc21 [Cpd 5, 1-(6-(1-(3-((4-((4-cyclobutoxy-5-(trifluoro-methyl)pyrimidin-2-yl)amino)piperidin-1-yl)sulfonyl)benzyl)piperidin-4-yl)-1-methyl-1H-indazol-3-yl)dihydropyrimidine-2,4(1H,3H)-dione] | 28 to 100 nM
